Results published in the supplement of paper PMC10331698.
± gives the standard deviation of the averaged measurements.

Key:
Assay in all cases: level (log10 ratio to DMSO vehicle control); higher = higher biomarker level / cell amount than vehicle control
Settings in all cases: in DMSO
[1] = compound: COC(=O)CCC(F)(F)C(F)(F)C(F)(F)C(F)(F)F [Methyl 2H,2H,3H,3H-perfluoroheptanoate]
Procedure: (§1)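 BioMAP Diversity Plus panel of 12 human primary cell co-culture systems (3C, 4H, LPS, SAg, BT, BF4T, BE3C, CASM3C, HDF3CGF, KF3CT, MyoF, Mphg). Compounds were added 1 h before stimulation and left for 24 h (MyoF 48 h; BT 72 h for soluble read-outs or 6 d for IgG). Biomarkers were read by ELISA, cytotoxicity by SRB, PBMC viability and proliferation by Alamar Blue. Each well value was divided by the mean of 8 DMSO control wells on the same plate and log10 transformed; duplicate blinded samples were tested at 4 concentrations.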

[2] = compound: FC(F)(F)C(F)(C(F)(F)F)C(F)(F)C(F)(F)CC1CO1 [3-(Perfluoro-3-methylbutyl)-1,2-propenoxide]
Procedure: as §1

Perfluoro-1-iodohexane = compound: FC(F)(F)C(F)(F)C(F)(F)C(F)(F)C(F)(F)C(F)(F)I [Perfluoro-1-iodohexane]
Procedure: as §1

[3] = compound: FC(F)(F)C(F)(F)C(F)(F)C(F)(F)C(F)(F)CCI [1-Iodo-1H,1H,2H,2H-perfluoroheptane]
Procedure: as §1

[4] = compound: NCC(F)(F)C(F)(F)C(F)(F)C(F)(F)C(F)(F)C(F)(F)C(F)(F)F [1H,1H-Perfluorooctylamine]
Procedure: as §1

Perfluoroheptanoic acid = compound: O=C(O)C(F)(F)C(F)(F)C(F)(F)C(F)(F)C(F)(F)C(F)(F)F [Perfluoroheptanoic acid]
Procedure: as §1

Perfluoropropanoic acid = compound: O=C(O)C(F)(F)C(F)(F)F [Perfluoropropanoic acid]
Procedure: as §1

Test System	level (log10) ([1]; 6700 nM)	level (log10) ([1]; 20000 nM)	level (log10) ([1]; 60000 nM)	level (log10) ([2]; 6700 nM)	level (log10) ([2]; 20000 nM)	level (log10) (Perfluoro-1-iodohexane; 6700 nM)	level (log10) (Perfluoro-1-iodohexane; 20000 nM)	level (log10) (Perfluoro-1-iodohexane; 60000 nM)	level (log10) ([3]; 6700 nM)	level (log10) ([3]; 20000 nM)	level (log10) ([3]; 60000 nM)	level (log10) ([4]; 6700 nM)	level (log10) ([4]; 20000 nM)	level (log10) ([4]; 60000 nM)	level (log10) (Perfluoroheptanoic acid; 6700 nM)	level (log10) (Perfluoroheptanoic acid; 20000 nM)	level (log10) (Perfluoroheptanoic acid; 60000 nM)	level (log10) (Perfluoropropanoic acid; 6700 nM)	level (log10) (Perfluoropropanoic acid; 20000 nM)	level (log10) (Perfluoropropanoic acid; 60000 nM)
lMphg:CCL2/MCP-1	-0.004 ± 0.0085	-0.011 ± 0.011	0.003 ± 0.031	-0.0165 ± 0.012	0.0075 ± 0.012	-0.021 ± 0.0099	0.0145 ± 0.032	-0.003 ± 0.025	-0.005 ± 0.021	-0.027 ± 0.016	-0.037 ± 0.0071	-0.03 ± 0.0099	-0.0245 ± 0.016	-0.0275 ± 0.04	-0.0365 ± 0.021	-0.019 ± 0.0042	0.027 ± 0.023	-0.021 ± 0.017	-0.0045 ± 0.0064	0.002 ± 0.013
CASM3C:Serum Amyloid A	0.009	-0.0065 ± 0.013	-0.0005 ± 0.022	-0.0235 ± 0.012	0.0035 ± 0.047	0.0035 ± 0.042	0.008 ± 0.035	0.007 ± 0.025	0.011 ± 0.023	0.003 ± 0.0014	-0.0195 ± 0.026	0.0345 ± 0.036	0.043 ± 0.069	0.015 ± 0.061	-0.006 ± 0.021	-0.013 ± 0.04	0.022 ± 0.082	-0.05 ± 0.033	-0.0755 ± 0.026	-0.0465 ± 0.054
CASM3C:CD106/VCAM-1	-0.021 ± 0.027	-0.019 ± 0.0071	-0.0085 ± 0.005	-0.022 ± 0.014	-0.0145 ± 0.019	0.003 ± 0.017	-0.003 ± 0.025	-0.023 ± 0.041	0.0215 ± 0.005	-0.0015 ± 0.0078	-0.063 ± 0.0014	-0.018 ± 0.058	-0.007 ± 0.035	-0.0105 ± 0.015	-0.0085 ± 0.0035	-0.0135 ± 0.021	0.012 ± 0.054	0.027 ± 0.025	0.0445 ± 0.052	0.0445 ± 0.0078
HDF3CGF:SRB	0.0005 ± 0.005	-0.001 ± 0.057	0.0735 ± 0.091	0.0005 ± 0.057	0.0145 ± 0.06	0.021 ± 0.035	0.0085 ± 0.018	-0.0085 ± 0.067	0.0335 ± 0.036	0.0065 ± 0.023	-0.052 ± 0.033	-0.0315 ± 0.0078	0.0335 ± 0.046	0.0315 ± 0.12	-0.029 ± 0.016	0.0125 ± 0.064	-0.045 ± 0.052	-0.003 ± 0.0085	-0.0175 ± 0.011	-0.0335 ± 0.032
MyoF:CD106/VCAM-1	-0.003 ± 0.0014	0.0105 ± 0.021	0.018 ± 0.011	0.008 ± 0.011	-0.0305 ± 0.019	-0.031 ± 0.016	-0.102 ± 0.064	-0.337 ± 0.03	0.001 ± 0.0042	-0.026 ± 0.0028	-0.0205 ± 0.0064	-0.007 ± 0.0085	-0.0295 ± 0.011	0.002 ± 0.013	-0.013 ± 0.0071	-0.004 ± 0.016	-0.0125 ± 0.015	-0.02 ± 0.013	-0.027 ± 0.016	0.0035 ± 0.016
3C:CD62E/E-Selectin	-0.037 ± 0.0071	-0.012 ± 0.013	0.0005 ± 0.022	-0.0215 ± 0.0078	-0.0115 ± 0.013	-0.0025 ± 0.00071	-0.0165 ± 0.0035	-0.0025 ± 0.029	-0.005 ± 0.0071	0.004 ± 0.011	0.008 ± 0.018	-0.0045 ± 0.047	0.022 ± 0.02	0.0335 ± 0.011	0.007 ± 0.0042	0.0125 ± 0.0078	0.0185 ± 0.00071	-0.01 ± 0.013	-0.005 ± 0.0085	0.0105 ± 0.013
MyoF:Decorin	-0.001 ± 0.013	0.015 ± 0.0028	0.0175 ± 0.052	0.0025 ± 0.029	0.026 ± 0.042	0.0185 ± 0.011	0.023 ± 0.0042	-0.012 ± 0.044	-0.012 ± 0.0028	-0.022 ± 0.023	-0.007 ± 0.034	-0.016 ± 0.011	-0.025 ± 0.017	-0.027 ± 0.0099	-0.0015 ± 0.013	0.036 ± 0.0042	0.0505 ± 0.035	-0.0255 ± 0.073	0.002 ± 0.11	0.046 ± 0.089
KF3CT:SRB	-0.018 ± 0.016	-0.0055 ± 0.005	0 ± 0.018	-0.004 ± 0.0042	-0.0085 ± 0.0064	-0.0075 ± 0.00071	-0.0065 ± 0.00071	0 ± 0.011	0.002 ± 0.0071	-0.0045 ± 0.00071	-0.0065 ± 0.0078	-0.01 ± 0.011	-0.0065 ± 0.013	0.0065 ± 0.035	-0.0065 ± 0.005	-0.006 ± 0.0085	0.007 ± 0.016	0.005 ± 0.0071	-0.005 ± 0.0028	-0.003
KF3CT:IL-1alpha	-0.0295 ± 0.019	-0.019 ± 0.018	-0.0095 ± 0.029	-0.0105 ± 0.013	-0.0065 ± 0.015	0.008 ± 0.017	0.005 ± 0.017	-0.014 ± 0.017	0.01 ± 0.016	0.009 ± 0.0057	-0.0295 ± 0.016	-0.0225 ± 0.0035	-0.001 ± 0.013	-0.0095 ± 0.0021	-0.007 ± 0.018	0.016 ± 0.014	-0.0115 ± 0.0064	-0.013 ± 0.05	-0.0035 ± 0.052	-0.04 ± 0.038
lMphg:CD40	-0.0295 ± 0.0035	-0.0285 ± 0.005	-0.039 ± 0.034	-0.0105 ± 0.028	-0.021 ± 0.011	-0.011 ± 0.0071	-0.0265 ± 0.0035	-0.0375 ± 0.013	-0.004 ± 0.0042	-0.008 ± 0.013	-0.058 ± 0.02	0.0025 ± 0.005	-0.0125 ± 0.035	-0.069 ± 0.054	-0.0045 ± 0.018	-0.0265 ± 0.012	-0.028 ± 0.027	-0.0045 ± 0.021	-0.0145 ± 0.023	0.004 ± 0.0028
HDF3CGF:CD106/VCAM-1	-0.0395 ± 0.033	-0.0135 ± 0.053	-0.0235 ± 0.066	-0.0045 ± 0.012	-0.0245 ± 0.025	-0.027 ± 0.024	-0.032 ± 0.014	-0.405 ± 0.44	-0.0335 ± 0.019	-0.102 ± 0.033	-0.429 ± 0.011	-0.0015 ± 0.0078	-0.0445 ± 0.074	-0.08 ± 0.095	-0.034 ± 0.027	-0.0135 ± 0.029	-0.021 ± 0.038	-0.0555 ± 0.0035	-0.018 ± 0.0014	0.0175 ± 0.052
lMphg:IL-1alpha	-0.0215 ± 0.056	-0.0265 ± 0.035	0.029 ± 0.082	-0.038 ± 0.042	0.034 ± 0.085	0.008 ± 0.0057	0.0525 ± 0.019	0.027 ± 0.011	0.031 ± 0.021	-0.01 ± 0.018	0.0305 ± 0.016	-0.005 ± 0.016	-0.0045 ± 0.013	0.0045 ± 0.0092	-0.0275 ± 0.042	-0.0025 ± 0.0035	0.0145 ± 0.012	-0.0235 ± 0.00071	-0.019 ± 0.038	0.035 ± 0.027
BE3C:MMP-9	-0.001 ± 0.011	-0.0065 ± 0.023	-0.0155 ± 0.013	-0.005 ± 0.0071	-0.018 ± 0.011	0.0075 ± 0.0092	0.013 ± 0.0028	0.001 ± 0.023	-0.0125 ± 0.0092	0.026 ± 0.0099	0.0525 ± 0.021	0.001 ± 0.023	-0.0105 ± 0.032	0.005 ± 0.048	0.0015 ± 0.018	0.042 ± 0.0014	0.0785 ± 0.057	0.0075 ± 0.025	0.0025 ± 0.018	0.0265 ± 0.012
